In assay [1] the target is OX1R (Rattus norvegicus, UniProt P56718). Briefly: radioligand binding assay, OX1 receptor. Particulars: membranes prepared from CHO cells expressing the OX1 receptor. The method, then: (§1) The utility of the compounds in accordance with the present invention as orexin receptor OX1R and/or OX2R antagonists may be readily determined without undue experimentation by methodology well known in the art, including the “FLIPR Ca^2+ Flux Assay” (Okumura et al., Biochem. Biophys. Res. Comm 280:976-981, 2001). In a typical experiment the OX1 and OX2 receptor antagonistic activity of the compounds of the present invention was determined in accordance with the following experimental method. For intracellular calcium measurements, Chinese hamster ovary (CHO) cells expressing the rat orexin-1 receptor or the human orexin-2 receptor, are grown in Iscove's modified DMEM containing 2 mM L-glutamine, […], 1% hypoxanthine-thymidine supplement, 100 U/ml penicillin, 100 ug/ml streptomycin and 10% heat-inactivated fetal calf serum (FCS). The cells are seeded at 20,000 cells/well into Becton-Dickinson black 384-well clear bottom sterile plates coated with poly-D-lysine. All reagents were from GIBCO-Invitrogen Corp. The seeded plates are incubated overnight at 37° C. and 5% CO2. Ala-6,12 human orexin-A as the agonist is prepared as a 1 mM stock solution in 1% bovine serum albumin (BSA) and diluted in assay buffer (HBSS containing 20 mM HEPES, 0.1% BSA and 2.5 mM probenecid, pH7.4) for use in the assay at a final concentration of 70 pM. Test compounds are prepared as 10 mM stock solution in DMSO, then diluted in 384-well plates, first in DMSO, then assay buffer. On the day of the assay, cells are washed 3 times with 100 ul assay buffer and then incubated for 60 min (37° C., 5% CO2) in 60 ul assay buffer containing 1 uM Fluo-4AM ester, 0.02% pluronic acid, and 1% BSA. The dye loading solution is then aspirated and cells are washed 3 times with 100 ul assay buffer. 30 ul of that same buffer is left in each well. Within the Fluorescent Imaging Plate Reader (FLIPR, Molecular Devices), test compounds are added to the plate in a volume of 25 ul, incubated for 5 min and finally 25 ul of agonist is added. Fluorescence is measured for each well at 1 second intervals for 5 minutes and the height of each fluorescence peak is compared to the height of the fluorescence peak induced by 70 pM Ala-6,12 orexin-A with buffer in place of antagonist. For each antagonist, IC50 value (the concentration of compound needed to inhibit 50% of the agonist response) is determined. Alternatively, compound potency can be assessed by a radioligand binding assay (described in Bergman et. al. Bioorg. Med. Chem. Lett. 2008, 18, 1425-1430) in which the inhibition constant (Ki) is determined in membranes prepared from CHO cells expressing either the OX1 or OX2 receptor. The intrinsic orexin receptor antagonist activity of a compound which may be used in the present invention may be determined by these assays.
Sequence of OX1R (P56718 whole entry, looked up): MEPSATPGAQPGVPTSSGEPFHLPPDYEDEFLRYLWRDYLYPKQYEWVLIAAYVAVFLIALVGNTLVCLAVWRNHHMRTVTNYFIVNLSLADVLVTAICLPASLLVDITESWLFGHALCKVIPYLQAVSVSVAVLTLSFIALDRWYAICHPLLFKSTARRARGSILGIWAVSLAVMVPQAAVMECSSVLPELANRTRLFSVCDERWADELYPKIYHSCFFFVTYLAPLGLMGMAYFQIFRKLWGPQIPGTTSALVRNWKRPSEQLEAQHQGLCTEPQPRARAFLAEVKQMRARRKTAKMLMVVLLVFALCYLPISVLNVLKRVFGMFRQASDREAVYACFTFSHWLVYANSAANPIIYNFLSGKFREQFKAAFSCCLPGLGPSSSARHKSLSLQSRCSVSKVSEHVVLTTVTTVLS

The target of assay [2] is OX2R (Homo sapiens (Human), UniProt O43614). Briefly: radioligand binding assay, OX2 receptor. The settings on record: membranes prepared from CHO cells expressing the OX2 receptor. The method, then:
as §1

24 compounds from patent US8569311B2, “Pyridyl piperidine orexin receptor antagonists” (Merch Sharp & Dohme Corp., priority 2007, dated 2013) can be followed below.

Sequence of OX2R (O43614 whole entry): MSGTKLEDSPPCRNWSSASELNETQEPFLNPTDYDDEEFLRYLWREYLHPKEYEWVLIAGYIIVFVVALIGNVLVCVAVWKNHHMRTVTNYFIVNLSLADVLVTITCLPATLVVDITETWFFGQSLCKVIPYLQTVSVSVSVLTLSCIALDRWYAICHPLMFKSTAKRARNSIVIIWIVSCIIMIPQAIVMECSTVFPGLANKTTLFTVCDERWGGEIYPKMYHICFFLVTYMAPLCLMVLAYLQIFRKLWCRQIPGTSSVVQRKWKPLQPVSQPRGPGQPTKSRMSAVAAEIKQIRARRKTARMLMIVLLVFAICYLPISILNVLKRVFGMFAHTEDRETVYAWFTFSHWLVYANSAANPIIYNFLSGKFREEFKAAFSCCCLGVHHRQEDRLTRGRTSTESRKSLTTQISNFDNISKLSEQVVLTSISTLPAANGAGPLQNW

Turning to `C[C@@H]1CC[C@@H](COc2ccnc(Cl)c2)CN1C(=O)c1ccccc1-n1nccn1` [Compound 1-43, 2-chloro-4-({(3R,6R)-6-methyl-1-[2-(2H-1,2,3-triazol-2-yl)benzoyl]piperidin-3-yl}methoxy)pyridine], the Ki (as a rule, a measure of affinity in units of concentration, obtained from inhibition or displacement) was 140 nM in assay [1] and 22 nM in assay [2].
For `Cc1ccc(-c2ccccn2)c(C(=O)N2C[C@H](COc3ccc(F)cn3)CC[C@H]2C)c1` [Compound 1-15, 5-fluoro-2-{[(3R,6R)-6-methyl-1-(5-methyl-2-pyridin-2-ylbenzoyl)piperidin-3-yl}methoxy}pyridine] the same measures were 3.2 nM and 0.35 nM.
The matching figures for `C[C@@H]1CC[C@@H](COc2ccc(F)cn2)CN1C(=O)c1ncccc1-c1ccccc1` [Compound 1-38, 2-[((2R,5R)-5-{[(5-fluoropyridin-2-yl)oxy]methyl}-2-methylpiperidin-1-yl)carbonyl]-3-phenylpyridine]: 86 nM and 1.9 nM.
Regarding `C[C@@H]1CC[C@@H](COc2ccc(F)cn2)CN1C(=O)c1cc(CO)ccc1-n1nccn1` [Compound G-1, [3-[((2R,5R)-5-{[(5-Fluoropyridin-2-yl)oxy]methyl}-2-methylpiperidin-1-yl)carbonyl]-4-(2H-1,2,3-triazol-2-yl)phenyl]methanol], the Ki in assay [1] worked out at 14 nM; in assay [2], 1.7 nM.
For `Cc1ccc(-c2ccccc2)c(C(=O)N2C[C@H](COc3ccc(F)cn3)CC[C@H]2C)c1` [Compound 1-10, 5-fluoro-2-({(3R,6R)-6-methyl-1-[(4-methylbiphenyl-2-yl)carbonyl]piperidin-3-yl}methoxy)pyridine] the same measures were 0.71 nM and 0.08 nM.
Regarding `Cc1cccc(OC[C@@H]2CC[C@@H](C)N(C(=O)c3ccccc3-n3nccn3)C2)n1` [Compound C-4, 2-Methyl-6-({(3R,6R)-6-methyl-1-[2-(2H-1,2,3-triazol-2-yl)benzoyl]piperidin-3-yl}methoxy)pyridine], the Ki in assay [1] was 22 nM; in assay [2], 0.67 nM.
For the compound `C[C@@H]1CC[C@@H](COc2ccc(F)cn2)CN1C(=O)c1c(F)cccc1-c1ncccn1` [Compound 1-34, 2-{3-fluoro-2-[((2R,5R)-5-{[(5-fluoropyridin-2-yl)oxy]methyl}-2-methylpiperidin-1-yl)carbonyl]phenyl}pyrimidine], the Ki in assay [1] came to 8.2 nM; in assay [2], 0.68 nM.
The matching figures for `Cc1ccc(-c2cn[nH]c2)c(C(=O)N2C[C@H](COc3ccc(F)cn3)CC[C@H]2C)c1` [Compound 1-21, 5-fluoro-2-({(3R,6R)-6-methyl-1-[5-methyl-2-(1H-pyrazol-4-yl)benzoyl]piperidin-3-yl}methoxy)pyridine]: 7.1 nM and 0.48 nM.
As for `Cc1ccc(-n2nccn2)c(C(=O)N2CCCC(COc3ccc(F)nc3)C2)c1` (stereo not drawn) [Compound 2-1], the Ki was determined as 96 nM in assay [1] and 29 nM in assay [2].
For `Cc1ccc(-c2cnccn2)c(C(=O)N2C[C@H](COc3ccc(F)cn3)CC[C@H]2C)c1` [Compound B-3, 2-{2-[((2R,5R)-5-{[(5-Fluoropyridin-2-yl)oxy]methyl}-2-methylpiperidin-1-yl)carbonyl]-4-methylphenyl}pyrazine] the same measures were 3.3 nM and 0.54 nM.
The matching figures for `Cc1ccc(-c2nccs2)c(C(=O)N2C[C@H](COc3ccc(F)cn3)CC[C@H]2C)c1` [Compound 1-1, 5-fluoro-2-({(3R,6R)-6-methyl-1-[5-methyl-2-(1,3-thiazol-2-yl)benzoyl]piperidin 3-yl}methoxy)pyridine]: 1.8 nM and 0.24 nM.
Take `C[C@@H]1CC[C@@H](COc2ccc(F)cn2)CN1C(=O)c1cc(F)ccc1-c1ncccn1` [Compound 1-19, 2-{4-fluoro-2-[((2R,5R)-5-{[(5-fluoropyridin-2-yl)oxy]methyl}-2-methylpiperidin-1-yl)carbonyl]phenyl}pyrimidine]: the values for the Ki in assay [1] and in assay [2] were 10 nM and 0.53 nM, respectively.
The matching figures for `C[C@@H]1CC[C@@H](COc2ccc(F)cn2)CN1C(=O)c1ccccc1-n1cccn1` [Compound 1-37, 5-fluoro-2-({(3R,6R)-6-methyl-1-[2-(1H-pyrazol-1-yl)benzoyl]piperidin-3-yl}methoxy)pyridine]: 55 nM and 1.5 nM.
Regarding `C[C@@H]1CC[C@@H](COc2ccc(F)cn2)CN1C(=O)c1ccccc1-c1ncccn1` [Compound 1-28, 2-{2-[((2R,5R)-5-{[(5-fluoropyridin-2-yl)oxy]methyl}-2-methylpiperidin-1-yl)carbonyl]phenyl}pyrimidine], the Ki is 17 nM in assay [1] and 0.67 nM in assay [2].
The matching figures for `C[C@@H]1CC[C@@H](COc2ccc(F)cn2)CN1C(=O)c1cc(C(=O)O)ccc1-c1ncccn1` [Compound H-4, 3-[((2R,5R)-5-{[(5-fluoropyridin-2-yl)oxy]methyl}-2-methylpiperidin-1-yl)carbonyl]-4-pyrimidin-2-ylbenzoic acid]: 84 nM and 37 nM.
The matching figures for `C[C@@H]1CC[C@@H](COc2ccc(F)cn2)CN1C(=O)c1cc(C(=O)O)ccc1-n1nccn1` [Compound F-4, 3-[((2R,5R)-5-{[(5-Fluoropyridin-2-yl)oxy]methyl}-2-methylpiperidin-1-yl)carbonyl]-4-(2H-1,2,3-triazol-2-yl)benzoic acid]: 260 nM and 410 nM.
The matching figures for `C[C@@H]1CC[C@@H](COc2ccc(F)cn2)CN1C(=O)c1cc(CO)ccc1-c1ncccn1` [Compound I-7, {3-[((2R,5R)-5-{[(5-Fluoropyridin-2-yl)oxy]methyl}-2-methylpiperidin-1-yl)carbonyl]-4-pyrimidin-2-ylphenyl}methanol]: 30 nM and 2 nM.
For the compound `Cc1ccc(-n2nccn2)c(C(=O)N2C[C@H](COc3ccc(F)cn3)CC[C@H]2C)c1` [Compound A-9, 5-Fluoro-2-({(3R,6R)-6-methyl-1-[5-methyl-2-(2H-1,2,3-triazol-2-yl)benzoyl]piperidin-3-yl}methoxy)pyridine], the Ki in assay [1] is 1 nM; in assay [2], 0.24 nM.
For `CCOc1ccccc1C(=O)N1C[C@H](COc2ccc(F)cn2)CC[C@H]1C` [Compound 1-24, 2-{[(3R,6R)-1-(2-ethoxybenzoyl)-6-methylpiperidin-3-yl]methoxy}-5-fluoropyridine] the same measures were 36 nM and 1.7 nM.
For `C[C@@H]1CC[C@@H](COc2ccc(F)cn2)CN1C(=O)c1cccc2cc[nH]c12` [Compound 1-27, 7-[((2R,5R)-5-{[(5-fluoropyridin-2-yl)oxy]methyl}-2-methylpiperidin-1-yl)carbonyl]-1H-indole] the same measures were 75 nM and 10 nM.
For `C[C@@H]1CC[C@@H](COc2ccc(Br)nc2)CN1C(=O)c1ccccc1-n1nccn1` [Compound 1-42, 2-bromo-5-({(3R,6R)-6-mcthyl-1-[2-(2H-1,2,3-triazol-2-yl)benzoyl]piperidin-3-yl}methoxy)pyridine] the same measures were 64 nM and 3.8 nM.
With `C[C@@H]1CC[C@@H](COc2ccc(F)cn2)CN1C(=O)c1ccccc1-n1nccn1` [Compound 1-4, 5-fluoro-2-({(3R,6R)-6-methyl-1-[2-(2H-1,2,3-triazol-2-yl)benzoyl]piperidin-3-yl}methoxy)pyridine], the results for the Ki in assay [1] and in assay [2] were 12 nM and 0.37 nM, respectively.
For `C[C@@H]1CC[C@@H](COc2ccc(F)cn2)CN1C(=O)c1cc(F)ccc1-n1nccn1` [Compound 1-8, 5-fluoro-2-({(3R,6R)-1-[5-fluoro-2-(2H-1,2,3-triazol-2-yl)benzoyl]-6-methylpiperidin-3-yl}methoxy)pyridine] the same measures were 6.8 nM and 0.5 nM.
The matching figures for `Cc1ccc(-c2ncccn2)c(C(=O)N2C[C@H](COc3ccc(F)cn3)CC[C@H]2C)c1` [Compound E-5, 2-{2-[((2R,5R)-5-{[(5-Fluoropyridin-2-yl)oxy]methyl}-2-methylpiperidin-1-yl)carbonyl]-4-methylphenyl}pyrimidine]: 2.9 nM and 0.31 nM.
